Assay results taken from patent US5571836A, “Viral attachment inhibitors” (priority 1995, dated 1996).
Counter-ions that a name gives are not always drawn.

Legend:
[1] = system: influenza virus B/Singapore/222/79; assay: Fetuin binding inhibition assay, influenza virus B/Singapore/222/79; details: for A^i (absorbance): 492 nm
[2] = system: influenza virus B/USSR/100/83; assay: Fetuin binding inhibition assay, influenza virus B/USSR/100/83; details: for A^i (absorbance): 492 nm
[3] = system: influenza virus Port Chalmers/1/73; assay: Fetuin binding inhibition assay, influenza virus Port Chalmers/1/73; details: for A^i (absorbance): 492 nm
[4] = system: influenza virus Victoria/3/75; assay: Fetuin binding inhibition assay, influenza virus Victoria/3/75; details: for A^i (absorbance): 492 nm
[5] = system: influenza virus Texas/1/77; assay: Fetuin binding inhibition assay, influenza virus Texas/1/77; details: for A^i (absorbance): 492 nm
[6] = system: influenza virus Philippines/2/82; assay: Fetuin binding inhibition assay, influenza virus Philippines/2/82; details: for A^i (absorbance): 492 nm
[7] = target: Vibrio cholerae neuraminidase (Vibrio cholerae, UniProt P0C6E9); assay: Neuraminidase cleavage (resistance), TLC analysis; format: biochemical; details: 37° C., 450 U/ml, pH 5.6; compared with compound (IV)
Procedure: (§1) Compound (IV) was incubated at 37° C. with Vibrio cholerae neuraminidase (450 U/ml) in 0.1M acetate buffer, pH 5.6, containing 0.9% NaCi and 0.1% CaCl2. Neuraminidase cleavage was determined on aliquots taken at intervals by TLC analysis (Merck silica gel plates in propanol/ethanol/25% aqueous ammonia, 2:2:1). Spots were developed by charring the plates with 3% H3 PO4 at 150° C. and quantitated densitometrically. The results are depicted in The FIGURE (v).

[8] = format: physicochemical; details: control solutions without enzyme
Procedure: as §1

[9] = system: influenza virus hemagglutinin; details: prior art; cited from earlier work
neuraminidase = details: prior art; cited from earlier work

Sequence of Vibrio cholerae neuraminidase (P0C6E9 25-781): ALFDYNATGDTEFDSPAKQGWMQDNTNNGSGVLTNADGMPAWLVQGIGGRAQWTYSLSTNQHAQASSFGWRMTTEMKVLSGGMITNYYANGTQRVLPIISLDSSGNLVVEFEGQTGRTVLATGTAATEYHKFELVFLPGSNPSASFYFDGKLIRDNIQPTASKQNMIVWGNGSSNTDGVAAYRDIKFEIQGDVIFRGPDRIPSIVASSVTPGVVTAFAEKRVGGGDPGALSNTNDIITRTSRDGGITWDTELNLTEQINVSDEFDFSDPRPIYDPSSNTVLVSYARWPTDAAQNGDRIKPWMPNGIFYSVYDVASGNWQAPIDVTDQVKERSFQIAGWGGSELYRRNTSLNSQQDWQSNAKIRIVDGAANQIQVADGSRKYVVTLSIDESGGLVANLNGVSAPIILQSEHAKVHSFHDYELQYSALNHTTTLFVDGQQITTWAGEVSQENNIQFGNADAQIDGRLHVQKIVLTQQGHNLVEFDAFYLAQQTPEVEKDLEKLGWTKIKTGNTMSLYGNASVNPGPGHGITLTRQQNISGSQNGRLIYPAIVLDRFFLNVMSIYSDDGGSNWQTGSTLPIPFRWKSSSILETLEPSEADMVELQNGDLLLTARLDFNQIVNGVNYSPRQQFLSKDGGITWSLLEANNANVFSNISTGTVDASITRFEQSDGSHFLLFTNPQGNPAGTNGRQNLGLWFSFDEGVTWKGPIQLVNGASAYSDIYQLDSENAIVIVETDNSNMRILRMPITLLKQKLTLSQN

CC(=O)NC1C(O)CC(OCc2ccccc2)(C(=O)O)OC1C(O)C(O)CO [IX, benzyl 5-acetamido-3,5-dideoxy-α-D-glycero-D-galacto-nonulopyranosidonic acid (sodium salt), reference compound]
A^i (absorbance) ([1]; .16 mM sialoside): 0.85 | -lgKd(i) ([1]; .32 mM sialoside): 3.3 | A^i (absorbance) ([1]; .32 mM sialoside): 0.76 | -lgKd(i) ([1]; .64 mM sialoside): 3.2 | A^i (absorbance) ([1]; .64 mM sialoside): 0.65 | -lgKd ± SD ([1]; mean over concentrations): 3.3 ± 0.1 | -lgKd(i) ([2]; 1.28 mM sialoside): 3.1 | A^i (absorbance) ([2]; 1.28 mM sialoside): 0.9 | -lgKd(i) ([2]; .16 mM sialoside): 3.6 | A^i (absorbance) ([2]; .16 mM sialoside): 1.2 | -lgKd(i) ([2]; .32 mM sialoside): 3.6 | A^i (absorbance) ([2]; .32 mM sialoside): 1.0 | -lgKd ± SD ([2]; mean over concentrations): 3.4 ± 0.3 | -lgKd(i) ([3]; 1.60 mM sialoside): 3.4 | A^i (absorbance) ([3]; 1.60 mM sialoside): 0.20 | -lgKd(i) ([3]; .05 mM sialoside): 3.7 | A^i (absorbance) ([3]; .05 mM sialoside): 0.51 | -lgKd(i) ([3]; .10 mM sialoside): 4.1 | A^i (absorbance) ([3]; .10 mM sialoside): 0.36 | -lgKd(i) ([3]; .20 mM sialoside): 3.8 | A^i (absorbance) ([3]; .20 mM sialoside): 0.36 | -lgKd(i) ([3]; .40 mM sialoside): 3.6 | A^i (absorbance) ([3]; .40 mM sialoside): 0.33 | -lgKd(i) ([3]; .80 mM sialoside): 3.5 | A^i (absorbance) ([3]; .80 mM sialoside): 0.28 | -lgKd ± SD ([3]; mean over concentrations): 3.7 ± 0.3 | -lgKd(i) ([4]; 1.60 mM sialoside): 4.2 | A^i (absorbance) ([4]; 1.60 mM sialoside): 0.09 | -lgKd(i) ([4]; .05 mM sialoside): 4.0 | A^i (absorbance) ([4]; .05 mM sialoside): 0.64 | -lgKd(i) ([4]; .10 mM sialoside): 4.0 | A^i (absorbance) ([4]; .10 mM sialoside): 0.58 | -lgKd(i) ([4]; .20 mM sialoside): 4.05 | A^i (absorbance) ([4]; .20 mM sialoside): 0.45 | -lgKd(i) ([4]; .40 mM sialoside): 4.1 | A^i (absorbance) ([4]; .40 mM sialoside): 0.31 | -lgKd(i) ([4]; .80 mM sialoside): 4.2 | A^i (absorbance) ([4]; .80 mM sialoside): 0.16 | -lgKd ± SD ([4]; mean over concentrations): 4.1 ± 0.08 | -lgKd(i) ([5]; 1.60 mM sialoside): 5.1 | A^i (absorbance) ([5]; 1.60 mM sialoside): 0.04 | -lgKd(i) ([5]; .05 mM sialoside): 4.8 | A^i (absorbance) ([5]; .05 mM sialoside): 0.77 | -lgKd(i) ([5]; .10 mM sialoside): 4.9 | A^i (absorbance) ([5]; .10 mM sialoside): 0.55 | -lgKd(i) ([5]; .20 mM sialoside): 5.0 | A^i (absorbance) ([5]; .20 mM sialoside): 0.30 | -lgKd(i) ([5]; .40 mM sialoside): 4.9 | A^i (absorbance) ([5]; .40 mM sialoside): 0.20 | -lgKd(i) ([5]; .80 mM sialoside): 5.0 | A^i (absorbance) ([5]; .80 mM sialoside): 0.09 | -lgKd ± SD ([5]; mean over concentrations): 5.0 ± 0.1 | -lgKd(i) ([6]; .05 mM sialoside): 5.2 | A^i (absorbance) ([6]; .05 mM sialoside): 0.35 | -lgKd(i) ([6]; .10 mM sialoside): 5.3 | A^i (absorbance) ([6]; .10 mM sialoside): 0.18 | -lgKd(i) ([6]; .20 mM sialoside): 5.4 | A^i (absorbance) ([6]; .20 mM sialoside): 0.08 | -lgKd(i) ([6]; .40 mM sialoside): 5.4 | A^i (absorbance) ([6]; .40 mM sialoside): 0.05 | -lgKd(i) ([6]; .80 mM sialoside): 5.3 | A^i (absorbance) ([6]; .80 mM sialoside): 0.03 | -lgKd ± SD ([6]; mean over concentrations): 5.3 ± 0.08 | Neuraminidase cleavage [7]: cleaved much more rapidly | Stability in the absence of enzyme [8]: at least 23 hours | Inhibition of attachment [9]: shows greater inhibition of attachment than 5-acetyl neuraminic acid itself | Susceptibility to neuraminidase cleavage (neuraminidase): not immune to this cleavage
